Experiment [1] deals with Hb9::GFP human ES cell-derived motor neurons. The note with it: SOD1G93A glia pretreated 1 day, MK 0524 10 μM, 20 days; p<0.05; n=3. The procedure: (§1) Differentiation of human Embryonic Stem Cells into motor neurons. For differentiation into motor neurons, the cells were allowed to reach 80-90% confluency, washed once with PBS, and then incubated for 15 minutes at 37° C. in a solution of 1 g/L Collagenase IV (GIBCO) in DMEM-F12 (GIBCO).
After 24 hours, the cells had aggregated to form embryoid bodies (EBs), and the media was changed to remove debris by centrifuging the EBs and resuspending in fresh in human ES cell media without bFGF2 or plasmanate in low attachment 6-well plates. EBs were cultured as such for 13 more days, with half of the media changed every two days, and a complete media change every week. After 14 days, the EBs were induced toward a caudal and ventral identity using retinoic acid (1 μM, Sigma) and an agonist of the Shh signaling pathway (1 μM) in N2 media: 1:1 DMEM:F-12+Glutamate (Gibco), 10,000 units Penicillin and 1 mg/mL Streptomicin (Gibco), 1% N2 Supplement (Gibco), 0.2 mM ascorbic acid (Sigma-Aldrich), 0.16% D-(+)-Glucose (Sigma-Aldrich), BDNF (10 ng/ml, R&D Systems), for another 14 days. […] These cells were then counted and plated on Poly-D-Lysine/Laminin CultureSlides (BD biosciences) or on a layer of primary glial cells. Depending on the experiment, motor neurons or interneurons were counted 10 or 20 days after plating. […]

For experiment [2] the test system is unchanged. The experiment in a line: Survival of Hb9::GFP human ES cell-derived motor neurons in co-culture with non-transgenic (WT) glia. The note with it: non-transgenic (WT) mouse glia pretreated 1 day, 20 days of treatment; MCP2, Cxc17, Rantes 100 ng/ml; GMFb 250 ng/ml; PGD2 10 μM; Shh agonist 11M [sic]; n=3. The format is cell-based. The procedure: as §1
After 24 hours, the cells had aggregated to form embryoid bodies (EBs), and the media was changed to remove debris by centrifuging the EBs and resuspending in fresh in human ES cell media without bFGF2 or plasmanate in low attachment 6-well plates. EBs were cultured as such for 13 more days, with half of the media changed every two days, and a complete media change every week. After 14 days, the EBs were induced toward a caudal and ventral identity using retinoic acid (1 μM, Sigma) and an agonist of the Shh signaling pathway (1 μM) in N2 media: 1:1 DMEM:F-12+Glutamate (Gibco), 10,000 units Penicillin and 1 mg/mL Streptomicin (Gibco), 1% N2 Supplement (Gibco), 0.2 mM ascorbic acid (Sigma-Aldrich), 0.16% D-(+)-Glucose (Sigma-Aldrich), BDNF (10 ng/ml, R&D Systems), for another 14 days. The EBs were then matured for a final 14 days in N2 media with GNDF (10 ng/mL, R&D Systems). After 42 days of differentiation, the EBs were dissociated. To dissociate the EBs, they were centrifuged at 1000 rpm for 5 min in a 15 ml falcon tube, and then washed once with PBS to eliminate residual media. The EBs were then incubated for 60 minutes at 37° C. in Earle's Balanced Salt Solution with 20 units of papain and 1000 units of Deoxyribonuclease I (Worthington Biochemical Corporation). EBs were triturated using a 2 mL serological pipette every 15-20 minutes during this incubation. When an almost single cell suspension was achieved, the cells were centrifuged for 5 minutes at 1000 RPM. The resulting cell pellet was washed once with PBS and then resuspended in N2 media with neurotrophic factors (GDNF, and BDNF (10 ng/ml, R&D Systems)). These cells were then counted and plated on Poly-D-Lysine/Laminin CultureSlides (BD biosciences) or on a layer of primary glial cells. Depending on the experiment, motor neurons or interneurons were counted 10 or 20 days after plating.
Primary Glial Cultures. P1-P3 mouse pups transgenic for SOD1G93A, SOD1WT or non-transgenic pups were sacrificed by using an approved method of euthanasia. Under a dissection microscope, the parenquima were isolated and the meninges were carefully stripped away with fine forceps. The tissue was then dissected into small pieces and transferred to a solution containing 12 ml of HBSS, 1.5 ml of trypsin (GIBCO) and 1% DNAse (Sigma) and incubated at 37° C. for 15 min, swirling the mixture periodically. The supernatant containing the dissociated cells was then collected and 3 ml of serum was added to inhibit trypsin activity.
The cells were then centrifuged at 1000 rpm for 5 min, resuspended in Glia medium: (Minimun Essential Medium with Earl's salts (GIBCO), D-(+)-Glucose 20% (Sigma), Penicillin-streptomycin (GIBCO), 10% Horse Serum (GIBCO)) and plated at the concentration of 80,000 cells per mL in T75 flasks (Falcon). After the glia reached confluency, they were replated onto Poly-D-Lysine/Laminin CultureSlides (BD biosciences).
Non-transgenic glia were individually pretreated for 1 day with either one of the three cytokines MCP2, Cxc17, or Rantes; with GMFb; an agonist of SHH pathway; or with PGD2.

In the case of `CS(=O)(=O)c1cc(F)cc2c3c(n(Cc4ccc(Cl)cc4)c12)[C@@H](CC(=O)O)CC3` [MK 0524], the “increase in the number of GFP positive neurons relative to untreated neurons plated on the same glia” value in experiment [1] is reported as 32%.

Take `CCCCC[C@H](O)/C=C/[C@H]1C(=O)C[C@H](O)[C@@H]1C/C=C\CCCC(=O)O` [PGD2, prostaglandin D2]: the “number of GFP positive motor neurons compared to the control condition” value (“number … compared to the control condition” for short) in experiment [2] turned out to be 19%+/−2%.

`CNC1CCC(N(Cc2cccc(-c3ccncc3)c2)C(=O)c2sc3ccccc3c2Cl)CC1` (stereo not drawn) [SHH agonist]: in experiment [2], the “number … compared to the control condition” value is recorded as 97%+/−12%.

In the case of Rantes, the “number … compared to the control condition” value in experiment [2] is given as 108%+/−20%.

B1: Mcp2: cytokine over expressed in mutant glia; from Peprotech (protein, UniProt Q9Z121 24-97, looked up)
C-C motif chemokine 8: GPDKAPVTCCFHVLKLKIPLRVLKSYERINNIQCPMEAVVFQTKQGMSLCVDPTQKWVSEYMEILDQKSQILQP
On to B1, for which the “number … compared to the control condition” value in experiment [2] was determined as 103%+/−8%.

B2: GMFb: glial maturation factor beta, shown to induce a pro-inflammatory state in astrocytes; from Peprotech (protein, UniProt Q9CQI3 2-142, looked up)
Glia maturation factor beta: SESLVVCDVAEDLVEKLRKFRFRKETHNAAIIMKIDKDERLVVLDEELEGVSPDELKDELPERQPRFIVYSYKYQHDDGRVSYPLCFIFSSPVGCKPEQQMMYAGSKNKLVQTAELTKVFEIRNTEDLTEEWLREKLGFFH
Take B2: in experiment [2], the “number … compared to the control condition” value is given as 95%+/−9%.

For the origin of these results see patent US8470594B2, “Methods for identifying agents that affect the survival of motor neurons” (President and Fellows of Harvard College, priority 2008, dated 2013).
